PMC7756582, “Prodrugs of γ‐Alkyl‐Modified Nucleoside Triphosphates: Improved Inhibition of HIV Reverse Transcriptase” (Angewandte Chemie (International Ed. in English), 2020)

Target: T1, human DNA polymerase α (Homo sapiens, UniProt P09884)
T1 construct: purchased Chimerx
T1 sequence (P09884 1-1462): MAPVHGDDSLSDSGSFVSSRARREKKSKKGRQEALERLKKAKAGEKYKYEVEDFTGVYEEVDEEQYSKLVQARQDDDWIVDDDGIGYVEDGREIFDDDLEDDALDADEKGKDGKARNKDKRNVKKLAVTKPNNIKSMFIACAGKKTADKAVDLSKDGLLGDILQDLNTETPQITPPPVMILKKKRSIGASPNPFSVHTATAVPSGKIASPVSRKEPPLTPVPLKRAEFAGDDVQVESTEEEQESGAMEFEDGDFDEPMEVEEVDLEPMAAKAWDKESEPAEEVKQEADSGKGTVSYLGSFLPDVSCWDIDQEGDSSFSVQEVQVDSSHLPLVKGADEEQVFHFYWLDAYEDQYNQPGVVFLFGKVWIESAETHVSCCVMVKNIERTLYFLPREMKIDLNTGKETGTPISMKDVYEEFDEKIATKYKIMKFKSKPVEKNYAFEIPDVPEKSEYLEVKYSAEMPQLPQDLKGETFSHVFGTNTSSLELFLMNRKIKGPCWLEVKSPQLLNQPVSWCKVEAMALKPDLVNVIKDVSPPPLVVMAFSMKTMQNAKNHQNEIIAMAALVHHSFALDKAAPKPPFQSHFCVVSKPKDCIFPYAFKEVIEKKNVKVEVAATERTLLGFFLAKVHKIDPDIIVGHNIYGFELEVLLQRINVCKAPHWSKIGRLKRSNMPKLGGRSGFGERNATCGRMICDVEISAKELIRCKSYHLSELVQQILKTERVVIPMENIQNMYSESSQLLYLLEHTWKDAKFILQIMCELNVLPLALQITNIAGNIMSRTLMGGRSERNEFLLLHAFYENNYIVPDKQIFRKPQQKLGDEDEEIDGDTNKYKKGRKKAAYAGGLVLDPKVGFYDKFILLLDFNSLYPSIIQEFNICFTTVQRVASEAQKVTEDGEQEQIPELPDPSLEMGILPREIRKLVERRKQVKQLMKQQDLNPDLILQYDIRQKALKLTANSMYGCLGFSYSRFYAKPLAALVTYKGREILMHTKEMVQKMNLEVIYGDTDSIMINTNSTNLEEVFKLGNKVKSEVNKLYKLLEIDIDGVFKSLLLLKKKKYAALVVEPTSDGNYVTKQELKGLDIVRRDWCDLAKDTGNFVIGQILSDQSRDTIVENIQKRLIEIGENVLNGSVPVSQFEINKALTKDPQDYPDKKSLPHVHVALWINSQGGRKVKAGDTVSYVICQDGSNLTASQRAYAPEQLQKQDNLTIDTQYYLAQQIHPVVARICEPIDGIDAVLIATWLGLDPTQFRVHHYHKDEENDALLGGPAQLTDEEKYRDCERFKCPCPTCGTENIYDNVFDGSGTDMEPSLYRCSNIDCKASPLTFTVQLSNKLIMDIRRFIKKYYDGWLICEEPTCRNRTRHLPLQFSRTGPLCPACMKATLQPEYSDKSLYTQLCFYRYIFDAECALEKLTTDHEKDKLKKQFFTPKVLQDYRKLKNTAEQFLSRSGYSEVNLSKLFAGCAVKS
Test: Primer extension assay with human DNA polymerase α
Assay type: biochemical
Conditions: dNTPs 250 μM, Pol α 4 U, 60 min
Experimental: Two different set‐ups have been used. First, a mixture of dATP, dCTP, dGTP, and γ‐alkyl‐TTP (N*) or ‐d4TTP (T*) was used as a mixture. The results obtained from these experiments were compared to those in which just γ‐alkyl‐TTP (N) or d4TTP (T) was used. In each experiment a primer extension without added polymerase (negative control, ‐ lane) and an experiment in which all four canonical NTPs were added (positive control, +lane) were used as controls.
Anti-HIV activity assay: Inhibition of HIV-1(IIIB)- and HIV-2(ROD)-induced cytopathicity in wild-type CEM/0 and thymidine kinase-deficient CEM/TK- cell cultures was measured in microtiter 96-well plates containing ~3·105 CEM cells/mL infected with 100 CCID50 of HIV per milliliter and containing appropriate dilutions of the test compounds. After 4−5 days of incubation at 37 °C in a CO2-controlled humidified atmosphere, CEM giant (syncytium) cell formation was examined microscopically. The EC50 (50% effective concentration) was defined as the compound concentration required to inhibit HIV-induced giant cell formation by 50%. […]
2) For HIV- RT assay: The final assay solution (10 µL) consists of 50 mM Tris-HCl (pH 8.6 at 22 °C), 10 mM MgCl2, 40mM KCl, dNTPs 66 µM, HIV RT 6 U, Hybrid 0.32 µM in a reaction volume of 10 µL, incubated 37 °C for 15 min, 80 °C for 3 min; 50 mA, 45w for 4 h. […] The result was visualized by fluorescence imaging. […]

**Q.** How did the “primer extension by DNA polymerase α (substrate properties)” value turn out when `Cc1cn(C2C=CC(COP(=O)(O)OP(=O)(O)OP(=O)(O)O)O2)c(=O)[nH]c1=O` (stereo not shown) [2 t, d4TTP, reference compound] was run?
**A.** substrate
